Values of other authors as cited in patent publication US20170218035A1, “COMPOSITIONS AND METHODS FOR TREATMENT WITH HEMOPEXIN” (Bayer HealthCare LLC, priority 2014, published 2017).

Target: T1, Hemopexin (plasma based glycoprotein) (Homo sapiens, UniProt P02790)
T1 sequence (P02790 24-462): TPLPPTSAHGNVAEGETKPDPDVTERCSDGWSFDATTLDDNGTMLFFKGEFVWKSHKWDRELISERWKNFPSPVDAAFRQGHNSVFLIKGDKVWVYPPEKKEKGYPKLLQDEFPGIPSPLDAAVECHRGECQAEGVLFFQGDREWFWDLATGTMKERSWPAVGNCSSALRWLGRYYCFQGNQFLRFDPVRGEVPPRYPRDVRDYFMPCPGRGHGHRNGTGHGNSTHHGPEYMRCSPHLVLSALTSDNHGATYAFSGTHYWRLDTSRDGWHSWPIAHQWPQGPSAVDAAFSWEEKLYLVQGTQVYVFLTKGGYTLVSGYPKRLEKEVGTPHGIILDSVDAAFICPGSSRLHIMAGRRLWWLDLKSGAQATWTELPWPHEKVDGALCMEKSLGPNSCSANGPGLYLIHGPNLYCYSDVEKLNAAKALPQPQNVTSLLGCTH
Conditions: highest known binding affinity for heme; reported value

## C=CC1=C(C)c2cc3[nH]c(cc4nc(cc5[nH]c(cc1n2)c(C)c5CCC(=O)O)C(CCC(=O)O)=C4C)c(C)c3C=C.[Fe] [heme]
  Kd: < 1 pM
